Source: BindingDB's records for doi:10.1124/jpet.103.049262 (Sanofi-Synthelabo Research, 2003)

Columns and labels:
[1] = target: Neuronal acetylcholine receptor subunit alpha-4 (Homo sapiens, UniProt P43681)
[2] = target: Acetylcholine receptor subunit alpha (Homo sapiens, UniProt P02708)
Chain of Acetylcholine receptor subunit alpha (P02708 as listed by the source): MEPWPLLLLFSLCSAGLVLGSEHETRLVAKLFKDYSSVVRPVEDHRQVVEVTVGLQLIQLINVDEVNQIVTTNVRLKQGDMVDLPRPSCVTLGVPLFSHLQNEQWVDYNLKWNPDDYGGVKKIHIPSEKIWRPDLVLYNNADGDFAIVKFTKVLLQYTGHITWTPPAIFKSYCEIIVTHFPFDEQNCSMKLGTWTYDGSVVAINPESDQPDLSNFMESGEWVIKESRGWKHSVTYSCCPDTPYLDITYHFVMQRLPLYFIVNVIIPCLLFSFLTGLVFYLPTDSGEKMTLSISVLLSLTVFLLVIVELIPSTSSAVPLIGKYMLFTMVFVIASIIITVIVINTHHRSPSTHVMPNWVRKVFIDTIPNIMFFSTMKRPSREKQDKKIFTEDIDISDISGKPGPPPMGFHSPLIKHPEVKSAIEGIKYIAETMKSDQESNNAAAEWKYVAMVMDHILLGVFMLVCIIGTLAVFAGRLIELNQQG

Chain of Neuronal acetylcholine receptor subunit alpha-4 (P43681 whole entry): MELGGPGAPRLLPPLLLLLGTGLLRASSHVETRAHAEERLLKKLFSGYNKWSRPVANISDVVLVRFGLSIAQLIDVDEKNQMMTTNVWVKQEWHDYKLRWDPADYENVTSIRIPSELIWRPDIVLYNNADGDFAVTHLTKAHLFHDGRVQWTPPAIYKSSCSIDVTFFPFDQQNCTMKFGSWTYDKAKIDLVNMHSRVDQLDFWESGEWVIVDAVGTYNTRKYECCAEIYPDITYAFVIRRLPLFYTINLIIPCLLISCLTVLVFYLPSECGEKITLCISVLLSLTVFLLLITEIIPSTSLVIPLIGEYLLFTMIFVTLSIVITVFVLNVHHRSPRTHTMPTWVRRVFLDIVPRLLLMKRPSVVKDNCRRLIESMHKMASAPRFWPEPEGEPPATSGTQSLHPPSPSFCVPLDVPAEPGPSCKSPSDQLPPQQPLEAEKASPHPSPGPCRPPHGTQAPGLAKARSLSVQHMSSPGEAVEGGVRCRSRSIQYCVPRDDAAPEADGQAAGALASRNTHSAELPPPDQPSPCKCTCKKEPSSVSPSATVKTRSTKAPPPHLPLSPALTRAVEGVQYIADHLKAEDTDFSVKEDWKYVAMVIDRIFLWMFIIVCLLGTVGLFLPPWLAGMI

c1cnc2c(c1)O[C@H]1CCN3CC[C@@]1(C2)C3
Ki [1]: 0.036 µM | Ki [2]: 6 µM
